PubChem BioAssay (NCI)
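These data come from cells grown in 96-well plates and exposed to compound for 48 hours at five concentrations. GI50: concentration for 50% inhibition of growth. TGI denotes the concentration required for complete inhibition of growth.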

Assays:
Experiment in all cases: growth of human tumour cells (NCI), 48 h
786-0 renal = test system: 786-0 renal
A498 renal = test system: A498 renal
A549 NSCLC = test system: A549 NSCLC
ACHN renal = test system: ACHN renal
CAKI-1 renal = test system: CAKI-1 renal
COLO 205 colon = test system: COLO 205 colon
EKVX NSCLC = test system: EKVX NSCLC
HCC-2998 colon = test system: HCC-2998 colon
HCT-116 colon = test system: HCT-116 colon
HCT-15 colon = test system: HCT-15 colon
HL-60(TB) leukemia = test system: HL-60(TB) leukemia
HOP-62 NSCLC = test system: HOP-62 NSCLC
HT29 colon = test system: HT29 colon
IGROV1 ovarian = test system: IGROV1 ovarian
K-562 leukemia = test system: K-562 leukemia
KM12 colon = test system: KM12 colon
KM20L2 colon = test system: KM20L2 colon
LOX IMVI melanoma = test system: LOX IMVI melanoma
M14 melanoma = test system: M14 melanoma
MALME-3M melanoma = test system: MALME-3M melanoma
MOLT-4 leukemia = test system: MOLT-4 leukemia
NCI-H226 lung = test system: NCI-H226 lung
NCI-H23 lung = test system: NCI-H23 lung
NCI-H460 lung = test system: NCI-H460 lung
NCI-H522 lung = test system: NCI-H522 lung
OVCAR-3 ovarian = test system: OVCAR-3 ovarian
OVCAR-4 ovarian = test system: OVCAR-4 ovarian
OVCAR-5 ovarian = test system: OVCAR-5 ovarian
OVCAR-8 ovarian = test system: OVCAR-8 ovarian
RPMI-8226 leukemia = test system: RPMI-8226 leukemia
RXF 393 renal = test system: RXF 393 renal
SF-268 CNS = test system: SF-268 CNS
SF-295 CNS = test system: SF-295 CNS
SF-539 CNS = test system: SF-539 CNS
SK-MEL-2 melanoma = test system: SK-MEL-2 melanoma
SK-MEL-28 melanoma = test system: SK-MEL-28 melanoma
SK-MEL-5 melanoma = test system: SK-MEL-5 melanoma
SK-OV-3 ovarian = test system: SK-OV-3 ovarian
SN12C renal = test system: SN12C renal
SNB-19 CNS = test system: SNB-19 CNS
SNB-75 CNS = test system: SNB-75 CNS
SW-620 colon = test system: SW-620 colon
TK-10 renal = test system: TK-10 renal
U251 CNS = test system: U251 CNS
UACC-257 melanoma = test system: UACC-257 melanoma
UACC-62 melanoma = test system: UACC-62 melanoma
UO-31 renal = test system: UO-31 renal
BT-549 breast = test system: BT-549 breast
CCRF-CEM leukemia = test system: CCRF-CEM leukemia
DU-145 prostate = test system: DU-145 prostate
HOP-92 NSCLC = test system: HOP-92 NSCLC
HS 578T breast = test system: HS 578T breast
MCF7 breast = test system: MCF7 breast
MDA-MB-231 breast = test system: MDA-MB-231 breast
MDA-MB-435 = test system: MDA-MB-435
MDA-N = test system: MDA-N
NCI/ADR-RES ovarian = test system: NCI/ADR-RES ovarian
PC-3 prostate = test system: PC-3 prostate
SR leukemia = test system: SR leukemia
T-47D breast = test system: T-47D breast

N[C@@H]1CCCC[C@@H]1N.O=P([O-])([O-])CN(CCN(CP(=O)([O-])[O-])CP(=O)([O-])[O-])CP(=O)([O-])[O-].[Pt+2]
GI50 (786-0 renal): > 25 µM | TGI (786-0 renal): > 25 µM | GI50 (A498 renal): > 25 µM | TGI (A498 renal): > 25 µM | GI50 (A549 NSCLC): > 25 µM | TGI (A549 NSCLC): > 25 µM | GI50 (ACHN renal): > 25 µM | TGI (ACHN renal): > 25 µM | GI50 (CAKI-1 renal): > 25 µM | TGI (CAKI-1 renal): > 25 µM | GI50 (COLO 205 colon): > 25 µM | TGI (COLO 205 colon): > 25 µM | GI50 (EKVX NSCLC): > 25 µM | TGI (EKVX NSCLC): > 25 µM | GI50 (HCC-2998 colon): > 25 µM | TGI (HCC-2998 colon): > 25 µM | GI50 (HCT-116 colon): > 25 µM | TGI (HCT-116 colon): > 25 µM | GI50 (HCT-15 colon): > 25 µM | TGI (HCT-15 colon): > 25 µM | GI50 (HL-60(TB) leukemia): > 25 µM | TGI (HL-60(TB) leukemia): > 25 µM | GI50 (HOP-62 NSCLC): > 25 µM | TGI (HOP-62 NSCLC): > 25 µM | GI50 (HT29 colon): > 25 µM | TGI (HT29 colon): > 25 µM | GI50 (IGROV1 ovarian): > 25 µM | TGI (IGROV1 ovarian): > 25 µM | GI50 (K-562 leukemia): > 25 µM | TGI (K-562 leukemia): > 25 µM | GI50 (KM12 colon): > 25 µM | TGI (KM12 colon): > 25 µM | GI50 (KM20L2 colon): > 25 µM | TGI (KM20L2 colon): > 25 µM | GI50 (LOX IMVI melanoma): > 25 µM | TGI (LOX IMVI melanoma): > 25 µM | GI50 (M14 melanoma): > 25 µM | TGI (M14 melanoma): > 25 µM | GI50 (MALME-3M melanoma): > 25 µM | TGI (MALME-3M melanoma): > 25 µM | GI50 (MOLT-4 leukemia): > 25 µM | TGI (MOLT-4 leukemia): > 25 µM | GI50 (NCI-H226 lung): > 25 µM | TGI (NCI-H226 lung): > 25 µM | GI50 (NCI-H23 lung): > 25 µM | TGI (NCI-H23 lung): > 25 µM | GI50 (NCI-H460 lung): > 25 µM | TGI (NCI-H460 lung): > 25 µM | GI50 (NCI-H522 lung): > 25 µM | TGI (NCI-H522 lung): > 25 µM | GI50 (OVCAR-3 ovarian): > 25 µM | TGI (OVCAR-3 ovarian): > 25 µM | GI50 (OVCAR-4 ovarian): > 25 µM | TGI (OVCAR-4 ovarian): > 25 µM | GI50 (OVCAR-5 ovarian): > 25 µM | TGI (OVCAR-5 ovarian): > 25 µM | GI50 (OVCAR-8 ovarian): > 25 µM | TGI (OVCAR-8 ovarian): > 25 µM | GI50 (RPMI-8226 leukemia): > 25 µM | TGI (RPMI-8226 leukemia): > 25 µM | GI50 (RXF 393 renal): > 25 µM | TGI (RXF 393 renal): > 25 µM | GI50 (SF-268 CNS): > 25 µM | TGI (SF-268 CNS): > 25 µM | GI50 (SF-295 CNS): > 25 µM | TGI (SF-295 CNS): > 25 µM | GI50 (SF-539 CNS): > 25 µM | TGI (SF-539 CNS): > 25 µM | GI50 (SK-MEL-2 melanoma): > 25 µM | TGI (SK-MEL-2 melanoma): > 25 µM | GI50 (SK-MEL-28 melanoma): > 25 µM | TGI (SK-MEL-28 melanoma): > 25 µM | GI50 (SK-MEL-5 melanoma): > 25 µM | TGI (SK-MEL-5 melanoma): > 25 µM | GI50 (SK-OV-3 ovarian): > 25 µM | TGI (SK-OV-3 ovarian): > 25 µM | GI50 (SN12C renal): > 25 µM | TGI (SN12C renal): > 25 µM | GI50 (SNB-19 CNS): > 25 µM | TGI (SNB-19 CNS): > 25 µM | GI50 (SNB-75 CNS): > 25 µM | TGI (SNB-75 CNS): > 25 µM | GI50 (SW-620 colon): > 25 µM | TGI (SW-620 colon): > 25 µM | GI50 (TK-10 renal): > 25 µM | TGI (TK-10 renal): > 25 µM | GI50 (U251 CNS): > 25 µM | TGI (U251 CNS): > 25 µM | GI50 (UACC-257 melanoma): > 25 µM | TGI (UACC-257 melanoma): > 25 µM | GI50 (UACC-62 melanoma): > 25 µM | TGI (UACC-62 melanoma): > 25 µM | GI50 (UO-31 renal): > 25 µM | TGI (UO-31 renal): > 25 µM

O=C(/C=C/c1ccccc1)C[C@@H](O)C[C@@H]1CC=CC(=O)O1
TGI (786-0 renal): 12 µM | TGI (A498 renal): 30.9 µM | TGI (A549 NSCLC): 52.2 µM | TGI (ACHN renal): 30.5 µM | TGI (BT-549 breast): 27.7 µM | TGI (CAKI-1 renal): 27.6 µM | TGI (CCRF-CEM leukemia): 5.12 µM | TGI (COLO 205 colon): 17.8 µM | TGI (DU-145 prostate): > 60.5 µM | TGI (EKVX NSCLC): 73.1 µM | TGI (HCC-2998 colon): 15.7 µM | TGI (HCT-116 colon): 6.38 µM | TGI (HCT-15 colon): 25.4 µM | TGI (HL-60(TB) leukemia): 5.06 µM | TGI (HOP-62 NSCLC): 33.7 µM | TGI (HOP-92 NSCLC): 16 µM | TGI (HS 578T breast): > 87.3 µM | TGI (HT29 colon): 16.8 µM | TGI (IGROV1 ovarian): 31.2 µM | TGI (K-562 leukemia): 7 µM | TGI (KM12 colon): 16.5 µM | TGI (LOX IMVI melanoma): 7.02 µM | TGI (M14 melanoma): 23.5 µM | TGI (MALME-3M melanoma): 30.6 µM | TGI (MCF7 breast): 11.4 µM | TGI (MDA-MB-231 breast): 27.5 µM | TGI (MDA-MB-435): 26.6 µM | TGI (MDA-N): 14.3 µM | TGI (MOLT-4 leukemia): 12.5 µM | TGI (NCI-H226 lung): > 100 µM | TGI (NCI-H23 lung): 28.6 µM | TGI (NCI-H460 lung): 39.5 µM | TGI (NCI-H522 lung): 6.9 µM | TGI (NCI/ADR-RES ovarian): > 85.5 µM | TGI (OVCAR-3 ovarian): 13.3 µM | TGI (OVCAR-4 ovarian): 45.7 µM | TGI (OVCAR-5 ovarian): 36.4 µM | TGI (OVCAR-8 ovarian): 18.9 µM | TGI (PC-3 prostate): 31.8 µM | TGI (RPMI-8226 leukemia): > 24.5 µM | TGI (RXF 393 renal): > 23 µM | TGI (SF-268 CNS): 27.7 µM | TGI (SF-295 CNS): 28 µM | TGI (SF-539 CNS): 14.9 µM | TGI (SK-MEL-2 melanoma): 33.9 µM | TGI (SK-MEL-28 melanoma): 24.9 µM | TGI (SK-MEL-5 melanoma): 26.6 µM | TGI (SK-OV-3 ovarian): 38.7 µM | TGI (SN12C renal): 25.2 µM | TGI (SNB-19 CNS): 35.7 µM | TGI (SNB-75 CNS): > 53.7 µM | TGI (SR leukemia): 11.5 µM | TGI (SW-620 colon): 5.53 µM | TGI (T-47D breast): 42.2 µM | TGI (TK-10 renal): 28.9 µM | TGI (U251 CNS): 21.7 µM | TGI (UACC-257 melanoma): 31.1 µM | TGI (UACC-62 melanoma): 14.5 µM | TGI (UO-31 renal): 28.9 µM
